# Measured values: US11963995B2, “Methods comprising desmopressin” (Ferring B.V., priority 2008, dated 2024)
# Experiments:
# [1] = tested on: adult patients with nocturia; test: Duration of total sleep time, change from baseline to Day 28 (Part I); type: in vivo, human; conditions: final visit (Day 28)
# Procedure: (§1) All treatments were administered orally once per night approximately 1 hour prior to bedtime; subjects were instructed to limit their fluid intake prior to drug self-administration. […] Randomization was to be stratified by age (<65, ≥65 years) and by the absence/presence of nocturnal polyuria, defined as a ratio of nighttime urine volume/24-hour urine volume 33%. To achieve the desired number of subjects within each stratum, enrollment of subjects in a particular stratum (age and/or presence/absence of nocturnal polyuria) could be halted. If this was necessary, all investigative sites were to be informed in writing at least 1 week in advance to stop screening in a population of subjects.
# The secondary efficacy endpoints were: (1) durability of effect achieved in Part I; (2) change in initial period of undisturbed sleep, defined as the elapsed time in minutes from going to bed with the intention of sleeping to the time of awakening for the first nocturnal void; and (3) change in duration of total sleep time. Additional secondary endpoints were collected, e.g., change in nocturia-specific quality of life as assessed by scores on the International Consultation on Incontinence Modular Questionnaire—Noctuira and the Noctuira Quality of Life Questionnaire, change in quality of sleep as assessed by the global score of the Pittsburgh Sleep Quality Index, and change in overall quality of life as assessed by the short form—12v2. A description of the additional secondary efficacy endpoints and their accompanying data are not provided herein.
# Total sleep time increased in all treatment groups in Part I; however, no pattern was observed by dose of desmopressin. Based on F-tests of effects, computed overall sleep duration and reported overall sleep duration were statistically significant predictors of change from baseline to Day 28 in total sleep time (p<0.0001).
# [2] = tested on: adult patients with nocturia; test: Change in urine volume (nocturnal, total) from baseline to Day 28 (Part I); type: in vivo, human; conditions: for median decrease of nocturnal urine volume compared to baseline before treatment: Day 28; for Change from baseline to final visit (Day 28) of nocturnal urine volume, mean / Change from baseline to final visit (Day 28) of nocturnal urine volume, median: ITT, Part I
# Procedure: As used herein, the term “nocturnal urine” refers to the total urine volume from 5 minutes after bedtime until rising in the morning, including the first void within 30 minutes of rising.
# as §1
# Changes in urine volume from baseline to the end of Day 28 were also assessed and included herein.
# Missing values concerning number of nocturnal voids at Day 8, Day 15, Day 22, and Day 28 in Part I were imputed using last observation carried forward (LOCF). Missing values concerning sleep disturbance and urine volume (for average 24-hour urine volume and average nocturnal urine volume) were not imputed.
# [3] = relative to vasopressin; cited from earlier work
# [4] = 10 ug, females over 50 years of age
# [5] = 25 ug, females over 50 years of age
# [6] = 50 ug, females over 50 years of age
# [7] = 100 ug, females over 50 years of age
# [8] = all males with monitoring, 10 ug dose
# [9] = all males with monitoring, 25 ug dose
# [10] = all males with monitoring, 50 ug dose
# [11] = all males with monitoring, 100 ug dose
# [12] = females over 65 years of age, 10 ug dose
# [13] = females over 65 years of age, 25 ug dose
# [14] = females over 65 years of age, 50 ug dose
# [15] = females over 65 years of age, 100 ug dose
smiles,measurement,setting,value
NC(=O)CC[C@@H]1NC(=O)[C@H](Cc2ccccc2)NC(=O)[C@H](Cc2ccc(O)cc2)NC(=O)CCSSC[C@@H](C(=O)N2CCC[C@H]2C(=O)N[C@H](CCCN=C(N)N)C(=O)NCC(N)=O)NC(=O)[C@H](CC(N)=O)NC1=O [desmopressin],"Total Sleep Time, Reported Sleep Time, Change from Baseline, Median",[1]; 50 μg,20.0 min
same,"Total Sleep Time, Calculated Sleep Time, Change from Baseline, Mean",[1]; 100 μg,9.7 min
same,"Total Sleep Time, Calculated Sleep Time, Change from Baseline, Median",[1]; 100 μg,12.0 min
same,"Total Sleep Time, Reported Sleep Time, Change from Baseline, Mean",[1]; 100 μg,19.0 min
same,"Total Sleep Time, Reported Sleep Time, Change from Baseline, Median",[1]; 100 μg,20.0 min
same,median decrease of nocturnal urine volume compared to baseline before treatment,"[2]; 10 μg, all females",179 mL
same,"Change from baseline to final visit (Day 28) of nocturnal urine volume, mean","[2]; 10 ug, all females",-207 mL
same,"Change from baseline to final visit (Day 28) of nocturnal urine volume, median","[2]; 10 ug, all females",-179 mL
same,median decrease of nocturnal urine volume compared to baseline before treatment,"[2]; 10 μg, all groups",150 mL
same,"Change from baseline to final visit (Day 28) of nocturnal urine volume, mean","[2]; 10 ug, all groups",-164 mL
same,"Change from baseline to final visit (Day 28) of nocturnal urine volume, median","[2]; 10 ug, all groups",-150 mL
same,median decrease of nocturnal urine volume compared to baseline before treatment,"[2]; 10 μg, females over 50 years of age",150 mL
same,"Change from baseline to final visit (Day 28) of nocturnal urine volume, mean",[2]; [4],-197 mL
same,"Change from baseline to final visit (Day 28) of nocturnal urine volume, median",[2]; [4],-150 mL
same,median decrease of nocturnal urine volume compared to baseline before treatment,"[2]; 25 μg, all females",298 mL
same,"Change from baseline to final visit (Day 28) of nocturnal urine volume, mean","[2]; 25 ug, all females",-307 mL
same,"Change from baseline to final visit (Day 28) of nocturnal urine volume, median","[2]; 25 ug, all females",-298 mL
same,"Change from baseline to final visit (Day 28) of nocturnal urine volume, mean","[2]; 25 ug, all groups",-224 mL
same,"Change from baseline to final visit (Day 28) of nocturnal urine volume, median","[2]; 25 ug, all groups",-233 mL
same,median decrease of nocturnal urine volume compared to baseline before treatment,"[2]; 25 μg, females over 50 years of age",383 mL
same,"Change from baseline to final visit (Day 28) of nocturnal urine volume, mean",[2]; [5],-356 mL
same,"Change from baseline to final visit (Day 28) of nocturnal urine volume, median",[2]; [5],-383 mL
same,median decrease of nocturnal urine volume compared to baseline before treatment,"[2]; 25 μg, females over 65 years of age",383 mL
same,"Change from baseline to final visit (Day 28) of nocturnal urine volume, mean","[2]; 50 ug, all females",-257 mL
same,"Change from baseline to final visit (Day 28) of nocturnal urine volume, median","[2]; 50 ug, all females",-204 mL
same,"Change from baseline to final visit (Day 28) of nocturnal urine volume, mean","[2]; 50 ug, all groups",-272 mL
same,"Change from baseline to final visit (Day 28) of nocturnal urine volume, median","[2]; 50 ug, all groups",-233 mL
same,"Change from baseline to final visit (Day 28) of nocturnal urine volume, mean",[2]; [6],-249 mL
same,"Change from baseline to final visit (Day 28) of nocturnal urine volume, median",[2]; [6],-196 mL
same,"Change from baseline to final visit (Day 28) of nocturnal urine volume, mean","[2]; 100 ug, all females",-321 mL
same,"Change from baseline to final visit (Day 28) of nocturnal urine volume, median","[2]; 100 ug, all females",-283 mL
same,"Change from baseline to final visit (Day 28) of nocturnal urine volume, mean","[2]; 100 ug, all groups",-312 mL
same,"Change from baseline to final visit (Day 28) of nocturnal urine volume, median","[2]; 100 ug, all groups",-283 mL
same,"Change from baseline to final visit (Day 28) of nocturnal urine volume, mean",[2]; [7],-317 mL
same,"Change from baseline to final visit (Day 28) of nocturnal urine volume, median",[2]; [7],-275 mL
same,median decrease of nocturnal urine volume compared to baseline before treatment,"[2]; 100 μg, males with monitoring",264 mL
same,"Change from baseline to final visit (Day 28) of nocturnal urine volume, mean",[2]; [8],-122 mL
same,"Change from baseline to final visit (Day 28) of nocturnal urine volume, median",[2]; [8],-83 mL
same,"Change from baseline to final visit (Day 28) of nocturnal urine volume, mean",[2]; [9],-146 mL
same,"Change from baseline to final visit (Day 28) of nocturnal urine volume, median",[2]; [9],-167 mL
same,"Change from baseline to final visit (Day 28) of nocturnal urine volume, mean",[2]; [10],-286 mL
same,"Change from baseline to final visit (Day 28) of nocturnal urine volume, median",[2]; [10],-235 mL
same,"Change from baseline to final visit (Day 28) of nocturnal urine volume, mean",[2]; [11],-296 mL
same,"Change from baseline to final visit (Day 28) of nocturnal urine volume, median",[2]; [11],-264 mL
same,"Change from baseline to final visit (Day 28) of nocturnal urine volume, mean","[2]; all males, 10 ug dose",-125 mL
same,"Change from baseline to final visit (Day 28) of nocturnal urine volume, median","[2]; all males, 10 ug dose",-117 mL
same,"Change from baseline to final visit (Day 28) of nocturnal urine volume, mean","[2]; all males, 25 ug dose",-162 mL
same,"Change from baseline to final visit (Day 28) of nocturnal urine volume, median","[2]; all males, 25 ug dose",-200 mL
same,"Change from baseline to final visit (Day 28) of nocturnal urine volume, mean","[2]; all males, 50 ug dose",-286 mL
same,"Change from baseline to final visit (Day 28) of nocturnal urine volume, median","[2]; all males, 50 ug dose",-246 mL
same,"Change from baseline to final visit (Day 28) of nocturnal urine volume, mean","[2]; all males, 100 ug dose",-306 mL
same,"Change from baseline to final visit (Day 28) of nocturnal urine volume, median","[2]; all males, 100 ug dose",-270 mL
same,"Change from baseline to final visit (Day 28) of nocturnal urine volume, mean",[2]; [12],-91 mL
same,"Change from baseline to final visit (Day 28) of nocturnal urine volume, median",[2]; [12],-54 mL
same,"Change from baseline to final visit (Day 28) of nocturnal urine volume, mean",[2]; [13],-372 mL
same,"Change from baseline to final visit (Day 28) of nocturnal urine volume, median",[2]; [13],-383 mL
same,"Change from baseline to final visit (Day 28) of nocturnal urine volume, mean",[2]; [14],-208 mL
same,"Change from baseline to final visit (Day 28) of nocturnal urine volume, median",[2]; [14],-203 mL
same,"Change from baseline to final visit (Day 28) of nocturnal urine volume, mean",[2]; [15],-323 mL
same,"Change from baseline to final visit (Day 28) of nocturnal urine volume, median",[2]; [15],-285 mL
same,"antidiuretic-to-vasopressor ratio, greater than vasopressin",[3],3000 fold
